In the NIST ThermoML archive (doi:10.1016/j.jct.2006.03.002):

Assay: molar heat capacity at constant pressure
Settings: 101.33 kPa, Crystal, Small sample (50 mg) DSC

[F-].[Na+] [sodium fluoride]
Settings | molar heat capacity at constant pressure [J/K/mol]
630.6 K | 58.08
645.6 K | 58.11
675.7 K | 59.55
690.6 K | 59.36
720.6 K | 58.15
735.5 K | 59.11
750.6 K | 58.85
765.6 K | 59.28
795.6 K | 58.36
825.5 K | 58.26
840.4 K | 58.49
855.6 K | 59.14
870.6 K | 58.37
885.5 K | 59.37
900.5 K | 59.7
907.5 K | 59.76
915.5 K | 60.11
922.3 K | 60.21
937.4 K | 60.58
945.5 K | 59.64
952.5 K | 59.98
960.6 K | 60.43
967.5 K | 60.92
975.4 K | 59.89
982.6 K | 60.11
990.5 K | 61.01
997.5 K | 60.91
1012.6 K | 61.02
1027.6 K | 60.56
1042.6 K | 61.86
1057.7 K | 61.63
1072.7 K | 62.08
1087.8 K | 62.41
1102.9 K | 62.25
